Laboratory results from patent US20260200849A1, “CATIONIC LIPIDS AND PREPARATION METHOD THEREOF” (RiboX Therapeutics HK Limited, priority 2024, published 2026).
“And” between values parts separate entries of the source, which are not always exact repeats. Equal entries are not always repeated.

How the values were obtained:
Hep G2 cells [1] = assay: In vitro toxicity: Hep G2 cell viability by CellTiter-Glo; format: cell-based; details: 72 hours post transfection, cell only = 100%
Procedure: 2E5 Hep G2 cells were transfected with 1 μg/mL RNA-LNPs. At 72 hours post transfection, cell viability (2-well repeat) was determined with the CellTiter-Glo® reagent kit, according to the kit protocol, measured by a luminometer. Cell only as control (100%).
The cell viability was calculated according to the following formula: […]

C57BL/6J mice [2] = assay: In vivo expression by ID, whole-body/injection site skin/lymph node luminescence; details: intradermal 0.15 mg/kg, 72 h post injection, female C57BL/6J mice N=3, Formulation 001, RNA 331
Procedure: 7-8 week old, female C57BL/6J mice (N=3) were injected with 0.15 mg*kg−1 of RNA-LNPs encoding for firefly-luciferase by intradermal injection. At 72-hours post injection, animals were intraperitoneally injected with 15 mg/mi of Luciferin substrate and whole-body/injection site skin/lymph node luminescence were determined by a bioluminescent in vivo imaging system (IVIS).

MCP-1 = assay: In vivo tolerability by IM: serum MCP-1 by Luminex; details: IM 1.0 mg/kg, male C57BL/6J mice N=3, Formulation 001, RNA 331
Procedure: (§1) 6-8 week old, male C57BL/6J mice (N=3) were injected with 1.0 mg*kg−1 of RNA-LNPs encoding for firefly-luciferase by intramuscular injection. At 2- and 24-hours post injection, about 40 μL blood was harvested and immediately added to the procoagulant containing tube. Stand for 30 min at room temperature and then centrifuged at 2500 g×10 min to obtain serum. About 15 μL serum samples were aliquoted for cytokine (MCP-1 and IL-6) detection by Luminex (ProcartaPlex Mouse 2-plex, Thermo). PBS group as negative control.

IL-6 = assay: In vivo tolerability by IM: serum IL-6 by Luminex; details: IM 1.0 mg/kg, male C57BL/6J mice N=3, Formulation 001, RNA 331
Procedure: as §1

injection site skin = assay: In vivo tolerability after intradermal injection: H&E staining of injection site skin; set-up: species or system C57BL/6J mice; key to Infiltration, mononuclear cells, dermis/subcutaneous, focal, Grade / Edema, subcutaneous, focal, Grade / Erosion, focal, Grade / Skin, Grade: 1==minimal; 2=mild; 3=moderate; 4=marked; 5=severe; N=Normal; NA=Not applicable; —=No data; details: intradermal 0.15 mg/kg, 72 h, Formulation 001, RNA 331; for Edema, subcutaneous, focal, Grade / Erosion, focal, Grade / Infiltration, mononuclear cells, dermis/subcutaneous, focal, Grade: per animal; for Total score: sum of lesion grades of the group (N=3)
Procedure: 7-8 week old, female C57BL/6J mice (N=3) were injected with 0.15 mg*kg−1 of RNA-LNIPs encoding for firefly-luciferase by intradermal injection. At 72-hours post injection, injection site skin from each animal was collected in 10% formalin, for H&E staining. PBS group (N=2) as control. (Note: 1==minimal, 2=mild, 3=moderate, 4=marked, 5=severe; N=Normal; NA=Not applicable; —=No data)

[3] = LNP size and polydispersity index (PDI) by dynamic light scattering (Zetasizer); format: physicochemical; details: for Size (nm): Formulation No. 010 (Ionizable lipid:DSPC:cholesterol:DSPE-PEG2000 = 38:30:30:2, N/P 6), RNA No. 331
Procedure: (§2) The LNP size and polydispersity index (PDI), determined by dynamic light scattering (DLS), and zeta potential were measured by a Zetasizer machine (Malvern). RNA concentration and encapsulation efficacy (EE %) were analyzed by the Quant-IT Ribogreen kit by calculating the percentage encapsulation at 100%—(RNA-LNPs/RNA-LNPs with Triton X-100).

C57BL/6J mice [4] = assay: In vivo expression by IM, luciferase RNA-LNPs, whole-body/injection site muscle/organ luminescence; details: IM 1.0 mg/kg, 24 h post injection, male C57BL/6J mice N=3, Formulation 001, RNA 331
Procedure: 6-8 week old, male C57BL/6J mice (N=3) were injected with 1.0 mg*kg−1 of RNA-LNPs encoding for firefly-luciferase by intramuscular injection. At 24-hours post injection, animals were intraperitoneally injected with 15 mg/ml of Luciferin substrate and whole-body/injection site muscle/liver/spleen/kidney/heart/lung luminescence were determined by a bioluminescent in vivo imaging system (IVIS).

[5] = RNA encapsulation efficacy (EE %) by Quant-IT Ribogreen kit; format: physicochemical; details: LNP
Procedure: as §2

Hep G2 cells [6] = assay: In vitro expression: luciferase activity in Hep G2 cells transfected with RNA-LNPs; format: cell-based; details: 100 ng/mL RNA-LNPs, 72 hours post transfection
Procedure: 2E5 Hep G2 cells were transfected with 100 ng/mL of RNA-LNPs encoding for firefly-luciferase. At 72 hours post transfection, the cells were washed and lysed. The luciferase expression (2-well repeat) was determined in the cell lysates with the luciferase assay reagent kit (Promega), according to the kit protocol, luciferase activity was measured by a luminometer.

Balb/c mice = assay: In vivo expression by IV, 0.05 mg/kg luciferase RNA-LNPs, IVIS luminescence; details: Formulation No. 010, RNA No. 331, female Balb/c mice, 0.05 mg*kg−1 intravenous; for Whole body at 24 h (p/s) (Mean): 24 hours post injection; for Whole body at 72 h (p/s) (Mean): 72 hours post injection
Summary of the method: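 IVIS bioluminescence was read after IP luciferin (15 mg/ml): whole-body at 24 and 72 h, or whole-body/liver/spleen at 24 h. Dosing was a single IV injection of 0.05 mg*kg−1 RNA-LNPs encoding firefly luciferase into 7-8 week old female Balb/c mice, N=3.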

[7] = 1 μg/mL RNA-LNPs, Formulation 001, RNA 331
[8] = Formulation No. 010, RNA No. 331, 1 μg/mL RNA-LNPs
[9] = Formulation No. 001, RNA No. 331
[10] = Formulation No. 010, RNA No. 331
[11] = Formulation No. 010, RNA No. 331 (firefly-luciferase)

Structure (SMILES) | In vitro cell viability (%) (Mean) (Hep G2 cells [1]; [7]) | In vitro cell viability (%) (Mean) (Hep G2 cells [1]; [8]) | Injection site Skin (p/s) (C57BL/6J mice [2]) | Lymph node (p/s) (C57BL/6J mice [2]) | Whole body (p/s) (C57BL/6J mice [2]) | MCP-1 at 2 h (MCP-1) | MCP-1 at 24 h (MCP-1) | IL-6 at 2 h (IL-6) | IL-6 at 24 h (IL-6) | Edema, subcutaneous, focal, Grade (injection site skin) | Erosion, focal, Grade (injection site skin) | Infiltration, mononuclear cells, dermis/subcutaneous, focal, Grade (injection site skin) | Total score (injection site skin) | PDI [3, 9] | Size [3, 9] | Size (nm) [3] | PDI [3, 10] | Heart (p/s) (C57BL/6J mice [4]) | Injection site muscle (p/s) (C57BL/6J mice [4]) | Kidney (p/s) (C57BL/6J mice [4]) | also measured
CCCCCCCC/C=C\CCCCCCCC(=O)NC(COC(=O)NCCN1CCCCCC1)C(=O)OCCCCCCCCOC(=O)C(CCCCCC)CCCCCCCC (stereo not drawn) [Lipid 701] | 74.24% | 96.43% | 3.34E+07 p/s | 6.94E+06 p/s | 6.46E+07 p/s | 628 pg/mL | 4620 pg/mL | 21.2 pg/mL | 108 pg/mL | — and 1 (2×) | — | 1 | 5 | 0.10 | 76.05 nm | 60.60 nm | 0.07 | 9.37E+05 p/s | 5.32E+08 p/s | 2.70E+07 p/s | Liver (p/s) (C57BL/6J mice [4]): 2.35E+08 p/s; Lung (p/s) (C57BL/6J mice [4]): 2.10E+06 p/s; Spleen (p/s) (C57BL/6J mice [4]): 1.24E+08 p/s; Whole body (p/s) (C57BL/6J mice [4]): 8.27E+08 p/s; EE (%) [5, 9]: 92.16%; EE (%) [5, 10]: 95.09%; In vitro Expression (Mean) (Hep G2 cells [6]; Formulation 001, RNA 331): 6.00E+05; In vitro Expression (Mean) (Hep G2 cells [6]; [11]): 3.96E+05; Whole body at 24 h (p/s) (Mean) (Balb/c mice): 4.00E+08 p/s; Whole body at 72 h (p/s) (Mean) (Balb/c mice): 1.08E+08 p/s
CCCCC/C=C\C/C=C\CCCCCCCC(=O)NC(COC(=O)NCCN1CCCCC1)C(=O)OCCCCCC(=O)OCC(CCCCCCCC)CCCCCCCCCC (stereo not drawn) [Lipid 728] | 71.13% | 90.20% | 4.04E+06 p/s | 1.03E+06 p/s | 3.58E+07 p/s | 421 pg/mL | 3740 pg/mL | 24.3 pg/mL | 143 pg/mL | — (2×) and 1 | — | 1 | 4 | 0.05 | 65.33 nm | 56.88 nm | 0.09 | 4.42E+05 p/s | 5.61E+08 p/s | 1.42E+07 p/s | Liver (p/s) (C57BL/6J mice [4]): 7.48E+07 p/s; Lung (p/s) (C57BL/6J mice [4]): 1.56E+06 p/s; Spleen (p/s) (C57BL/6J mice [4]): 3.40E+07 p/s; Whole body (p/s) (C57BL/6J mice [4]): 6.11E+08 p/s; EE (%) [5, 9]: 96.53%; EE (%) [5, 10]: 96.83%; In vitro Expression (Mean) (Hep G2 cells [6]; Formulation 001, RNA 331): 3.37E+05; In vitro Expression (Mean) (Hep G2 cells [6]; [11]): 4.71E+05; Whole body at 24 h (p/s) (Mean) (Balb/c mice): 1.86E+08 p/s; Whole body at 72 h (p/s) (Mean) (Balb/c mice): 5.78E+07 p/s
